Results published in ChEMBL document CHEMBL1201862, “PubChem BioAssay data set” (2004).
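Each compound was tested at five concentrations against cells in 96-well plates for 48 hours. GI50 = concentration required for 50% inhibition of growth.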 The source made the active and inactive calls. No stated cut-off is given here; in the data, active = GI50 up to about 1.1 µM and inactive = higher.

Tests used:
Assay in all cases: NCI-60 cell line screen, 48 h
[1] = tested on: SNB-75
[2] = tested on: RPMI-8226
[3] = tested on: MDA-N
[4] = tested on: NCI-H226
[5] = tested on: NCI/ADR-RES
[6] = tested on: UACC-62
[7] = tested on: HCT-15
[8] = tested on: HT-29
[9] = tested on: K562
[10] = tested on: COLO 205
[11] = tested on: MOLT-4
[12] = tested on: MCF7
[13] = tested on: SNB-19
[14] = tested on: SK-MEL-28
[15] = tested on: SF-295
[16] = tested on: UACC-257
[17] = tested on: KM12
[18] = tested on: CAKI-1
[19] = tested on: OVCAR-3
[20] = tested on: HCC 2998

SMILES | GI50 [1] | GI50 [2] | GI50 [3] | GI50 [4] | GI50 [5] | GI50 [6] | GI50 [7] [µM] | GI50 [8] | GI50 [9] | GI50 [10] | GI50 [11] | GI50 [12] | GI50 [13] | GI50 [14] | GI50 [15] | GI50 [16] | GI50 [17] | GI50 [18] | GI50 [19] | GI50 [20]
O=C1c2ccccc2C2=Nc3ccncc3CN12 | 74.5 µM (inactive) | > 100 µM (inactive) | > 100 µM (inactive) | > 100 µM (inactive) | > 100 µM (inactive) | > 100 µM (inactive) | > 100 | > 100 µM (inactive) | > 100 µM (inactive) | > 100 µM (inactive) | > 100 µM (inactive) | > 100 µM (inactive) | > 100 µM (inactive) | > 100 µM (inactive) | > 100 µM (inactive) | > 100 µM (inactive) | 90.2 µM (inactive) | > 100 µM (inactive) | > 100 µM (inactive) | > 100 µM (inactive)
O=C1C=Cc2c(Cl)sc(Cl)c21 | 3.61 µM (inactive) | 0.675 µM (active) | 2.53 µM (inactive) | 6.4 µM (inactive) | 2.03 µM (inactive) | 3.01 µM (inactive) | 1.51 | 1.46 µM (inactive) | 0.767 µM (active) | 1.45 µM (inactive) | 0.12 µM (active) | 1.05 µM (active) | 4.63 µM (inactive) | 1.73 µM (inactive) | 8.59 µM (inactive) | 2.03 µM (inactive) | 0.883 µM (active) | 2.15 µM (inactive) | 1.85 µM (inactive) | 5.38 µM (inactive)
CC1(C)C(c2ccccc2)=[N+]([O-])C(C)(C)N1O | > 10 µM (inactive) | > 10 µM (inactive) | > 10 µM (inactive) | > 10 µM (inactive) | > 10 µM (inactive) | > 10 µM (inactive) | > 10 | > 10 µM (inactive) |  | > 10 µM (inactive) | > 10 µM (inactive) | > 10 µM (inactive) | > 10 µM (inactive) | > 10 µM (inactive) | > 10 µM (inactive) | > 10 µM (inactive) | > 10 µM (inactive) | > 10 µM (inactive) | > 10 µM (inactive) | > 10 µM (inactive)
COCOc1c(C(OCOC)c2cnc(Sc3ccccc3)n2C)ccc(OC)c1OC (stereo not given) | 35.3 µM (inactive) | 65 µM (inactive) | > 100 µM (inactive) | 76.7 µM (inactive) | 94.4 µM (inactive) | > 100 µM (inactive) | > 100 | > 100 µM (inactive) | > 100 µM (inactive) |  | 87.1 µM (inactive) | > 100 µM (inactive) | > 100 µM (inactive) | > 100 µM (inactive) | > 100 µM (inactive) | 63.2 µM (inactive) | > 100 µM (inactive) | > 100 µM (inactive) | > 100 µM (inactive) | > 100 µM (inactive)
CSc1nc(Cl)c2c(n1)Sc1nc3cc4c(cc3n1C2O)OCO4 (stereo not given) | 3.75 µM (inactive) | 0.385 µM (active) | 0.237 µM (active) | 1.1 µM (active) | 0.385 µM (active) | 0.43 µM (active) | 0.31 | 0.254 µM (active) | 0.29 µM (active) | 0.247 µM (active) |  | 0.338 µM (active) | 1.57 µM (inactive) | 0.895 µM (active) | 0.818 µM (active) | > 58.7 µM (inactive) | 0.194 µM (active) | 2.95 µM (inactive) | 0.982 µM (active) | 1.66 µM (inactive)
COC(=O)c1cccc(OC)c1C#Cc1c(OC)cccc1OC | > 100 µM (inactive) | > 100 µM (inactive) | 53.2 µM (inactive) | > 100 µM (inactive) | > 100 µM (inactive) | > 100 µM (inactive) | > 100 | > 100 µM (inactive) | > 100 µM (inactive) | > 100 µM (inactive) | > 100 µM (inactive) | > 100 µM (inactive) | > 100 µM (inactive) | > 100 µM (inactive) | > 100 µM (inactive) | > 100 µM (inactive) | 69.7 µM (inactive) | > 100 µM (inactive) | > 100 µM (inactive) | > 100 µM (inactive)
CCOC(=O)C(NC(=O)c1ccccc1)(N1CCN(c2cc3c(cc2F)c(=O)c(C(=O)O)cn3CC)CC1)C(F)(F)F (stereo not given) | 26.1 µM (inactive) | 25.2 µM (inactive) | 37.7 µM (inactive) | 29.2 µM (inactive) | 41.4 µM (inactive) | 29.6 µM (inactive) | 24.4 | 29 µM (inactive) | 31.8 µM (inactive) | 17.1 µM (inactive) | 21.5 µM (inactive) | 26.6 µM (inactive) | 29.9 µM (inactive) | < 0.01 µM (active) | 37.5 µM (inactive) | 12.9 µM (inactive) | 25.9 µM (inactive) | 21.4 µM (inactive) | 31.3 µM (inactive) | 52.2 µM (inactive)
CCN(CC)CCC(=O)OC1C(C)=CC(C)C(=O)CC(C(C)CC2CCC(O)C(OC)C2)OC(=O)C2CCCCN2C(=O)C(=O)[C@@]2(O)OC(CCC2C)CC(OC)\C(C)=C/C=C/C=C/C(C)CC(C)C(=O)C1OC (stereo not given in full) | < 0.01 µM (active) | 0.415 µM (active) | 8.61 µM (inactive) | 12.9 µM (inactive) | 11.3 µM (inactive) |  | 1.75 | 1.91 µM (inactive) | < 0.0183 µM (active) | 12.1 µM (inactive) |  | < 0.01 µM (active) | 4.34 µM (inactive) | 0.0791 µM (active) | < 0.01 µM (active) | 13.3 µM (inactive) | 7.98 µM (inactive) | 0.975 µM (active) | 11.2 µM (inactive) | 1.87 µM (inactive)
CCOC(=O)Cc1ccc(Nc2nc3cc(F)c(F)cc3nc2C(=O)OCC)cc1 | 81.8 µM (inactive) | 39.1 µM (inactive) | 45 µM (inactive) | 69.3 µM (inactive) | 43.9 µM (inactive) | 39.2 µM (inactive) | 21.8 | 53.7 µM (inactive) | 35.7 µM (inactive) | 37.2 µM (inactive) | 44 µM (inactive) | 37.6 µM (inactive) | 48.2 µM (inactive) | 64 µM (inactive) | 73.1 µM (inactive) | 44.2 µM (inactive) | > 100 µM (inactive) | 19.1 µM (inactive) | 47.2 µM (inactive) | 25.6 µM (inactive)
CC(=O)C1=C(c2ccccc2)N(C2OC(CO)C(O)C(O)C2O)C(S)=C(C#N)C1c1ccc(Cl)cc1 (stereo not given) | 28.8 µM (inactive) | 29.9 µM (inactive) | 25.8 µM (inactive) | 20.7 µM (inactive) | 31.4 µM (inactive) | 16.4 µM (inactive) | 23 | 31 µM (inactive) | 32.7 µM (inactive) | 24.7 µM (inactive) | 15.8 µM (inactive) | 20.1 µM (inactive) | 34.9 µM (inactive) | 20.7 µM (inactive) | 35.9 µM (inactive) | 25.4 µM (inactive) | 23.2 µM (inactive) | 29 µM (inactive) | 21.6 µM (inactive) | 17.7 µM (inactive)
O=C1NC(Nc2ccccc2)=N/C1=C\c1c(Cl)cccc1Cl | 18.9 µM (inactive) | 33.5 µM (inactive) | 19.8 µM (inactive) | 16.7 µM (inactive) | 23.6 µM (inactive) | 21.6 µM (inactive) | 49.8 | 30.6 µM (inactive) | 21 µM (inactive) | 31.3 µM (inactive) | 20.7 µM (inactive) | 19.4 µM (inactive) | 25 µM (inactive) | 30.5 µM (inactive) | 31.3 µM (inactive) | 23.8 µM (inactive) | 29.5 µM (inactive) | 48.1 µM (inactive) | 63.4 µM (inactive) | 21.4 µM (inactive)
